Laboratory results published in ChEMBL document CHEMBL5236628 (J Med Chem, 2022).
Converted amounts (≈) assume the structure as drawn. The source made the active and inactive calls. The calls are words filed in the database; no cut-off is given here.

How the values were obtained:
[1] = physchem; settings: buffer, pH 7.4
[2] = system: Plasmodium falciparum; assay: microbe, parasite or virus in culture; settings: NF54, 72 h
[3] = biological target: Voltage-gated inwardly rectifying potassium channel KCNH2 (Homo sapiens, UniProt Q12809); assay: Inhibition of human ERG expressed in CHO-K1 cells by Q-patch clamp assay
Voltage-gated inwardly rectifying potassium channel KCNH2, sequence (Q12809 whole entry): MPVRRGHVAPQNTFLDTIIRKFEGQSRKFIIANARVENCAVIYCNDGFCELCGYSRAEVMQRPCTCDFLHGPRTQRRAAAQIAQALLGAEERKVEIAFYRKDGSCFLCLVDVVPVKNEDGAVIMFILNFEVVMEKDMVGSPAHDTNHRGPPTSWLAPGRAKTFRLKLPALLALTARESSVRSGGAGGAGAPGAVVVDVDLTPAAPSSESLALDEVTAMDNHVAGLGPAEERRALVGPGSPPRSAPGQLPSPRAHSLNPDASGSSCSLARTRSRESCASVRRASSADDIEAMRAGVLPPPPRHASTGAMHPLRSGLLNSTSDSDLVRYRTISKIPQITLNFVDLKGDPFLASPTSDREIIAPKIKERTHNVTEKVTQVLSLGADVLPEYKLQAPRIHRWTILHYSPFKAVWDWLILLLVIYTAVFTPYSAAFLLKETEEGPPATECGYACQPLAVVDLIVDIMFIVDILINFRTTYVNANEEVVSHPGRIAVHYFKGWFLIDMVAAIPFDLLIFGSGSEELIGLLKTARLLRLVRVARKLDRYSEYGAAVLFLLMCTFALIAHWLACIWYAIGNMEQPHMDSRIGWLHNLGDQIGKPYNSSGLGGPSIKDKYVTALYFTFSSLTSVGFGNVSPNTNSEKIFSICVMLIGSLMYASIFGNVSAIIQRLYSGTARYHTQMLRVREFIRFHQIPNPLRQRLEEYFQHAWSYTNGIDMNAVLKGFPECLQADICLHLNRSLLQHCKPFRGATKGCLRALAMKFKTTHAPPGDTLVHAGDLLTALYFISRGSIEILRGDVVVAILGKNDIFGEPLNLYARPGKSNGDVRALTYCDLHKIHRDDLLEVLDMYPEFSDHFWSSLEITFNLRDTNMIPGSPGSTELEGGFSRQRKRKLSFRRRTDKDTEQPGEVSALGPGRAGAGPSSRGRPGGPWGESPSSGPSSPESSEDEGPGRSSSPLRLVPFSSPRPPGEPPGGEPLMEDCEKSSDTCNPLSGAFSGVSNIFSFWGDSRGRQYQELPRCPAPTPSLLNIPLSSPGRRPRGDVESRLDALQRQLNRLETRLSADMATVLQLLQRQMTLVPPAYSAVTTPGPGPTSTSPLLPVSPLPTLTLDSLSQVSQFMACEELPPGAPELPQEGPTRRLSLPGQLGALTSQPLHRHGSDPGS

[4] = system: Plasmodium falciparum; assay: Antiplasmodial activity against multidrug resistant Plasmodium falciparum K1 incubated for 72 hrs by microplate reader assay; format: functional, organism-based; settings: K1, 72 h
[5] = Cytotoxicity against CHO cells measured after 48 hrs by MTT assay; settings: Chinese hamster
[6] = Selectivity index, ratio of IC50 for Plasmodium falciparum NF54 to IC50 for CHO cells; settings: hamster
[7] = system: Hemozoin; assay: Inhibition of Beta-hematin in Plasmodium falciparum NF54 assessed as hemozoin formation after 36 hrs by flow cytometry analysis

Structure (SMILES)	solubility kinetic at 2 h [1] [µM]	IC50 [2] [µM]	other results
Cn1c(NC2CCN(CCc3ccc(C(=O)N4CCC(O)C4)cc3)CC2)nc2ccccc21 (stereo not drawn)	80 (≈ 35.8 µg/mL)	3.99	
Cc1noc(-c2ccc(CCN3CCC(Nc4nc5cc(F)ccc5n4C)CC3)cc2)n1	80 (≈ 34.8 µg/mL)	0.834	IC50 [3]: 28.7 µM
Cn1c(NC2CCN(CCc3ccc(C(=O)NCCN)cc3)CC2)nc2ccccc21	100 (≈ 42.1 µg/mL)	> 6	
Cc1noc(-c2ccc(CCN3CCC(Nc4nc5cc(C)c(C)cc5n4C)CC3)cc2)n1	60 (≈ 26.7 µg/mL)	0.163	
Cn1c(NC2CCN(CCc3ccc(-c4nc(C(=O)O)no4)cc3)CC2)nc2ccccc21	120 (≈ 53.6 µg/mL)	> 6	IC50 [3]: > 30 µM
Cc1noc(-c2ccc(CCN3CCC(Nc4nc5ccccc5n4C)CC3)cc2)n1	160 (≈ 66.6 µg/mL)	0.033	IC50 [4]: 0.082 µM; IC50 at 48 h ([5]; CHO cells): 9.08 µM; IC50 [3]: 0.35 µM; selectivity ratio [6]: 275
CC(C)c1noc(-c2ccc(CCN3CCC(Nc4nc5ccccc5n4C)CC3)cc2)n1	60 (≈ 26.7 µg/mL)	0.492	
Cn1c(NC2CCN(CCc3ccc(C(=O)O)cc3)CC2)nc2ccccc21	160 (≈ 60.6 µg/mL)	> 6	
CCN(CC)Cc1cc(Nc2ccnc3cc(Cl)ccc23)ccc1O [AMODIAQUINE]			IC50 [7]: 10 µM
Cc1noc(-c2ccc(CCN3CC[C@H](Nc4nc5ccccc5n4Cc4ccc(C#N)cc4)C3)cc2)n1		0.515	
Cn1c(NC2CCN(CCc3ccc(C(=O)N4CCC(C)(O)C4)cc3)CC2)nc2ccccc21 (stereo not drawn)	80 (≈ 36.9 µg/mL)	> 6	
Cc1noc(-c2ccc(CCN3CCC(Nc4nc5cc(Br)ccc5n4C)CC3)cc2)n1	80 (≈ 39.6 µg/mL)	0.72	
COc1ccc2c(c1)nc(NC1CCN(CCc3ccc(-c4nc(C)no4)cc3)CC1)n2C	80 (≈ 35.7 µg/mL)	0.309	
Cc1noc(-c2ccc(CCN3CCC(Nc4nc5ccccc5n4Cc4cccnc4)CC3)cc2)n1		0.304	
Cn1c(NC2CCN(CCc3ccc(C(=O)N4CCOCC4)cc3)CC2)nc2ccccc21	80 (≈ 35.8 µg/mL)	> 6	
Cc1nc(-c2ccc(CCN3CCC(Nc4nc5ccccc5n4Cc4ccc(C#N)cc4)CC3)cc2)no1	40 (≈ 20.7 µg/mL)	0.051	IC50 [4]: 0.174 µM; IC50 at 48 h ([5]; CHO cells): 5.87 µM; selectivity ratio [6]: 115
Cc1noc(-c2ccc(CCN3CCC(Nc4nc5ccccc5n4Cc4ccc(C(F)(F)F)cc4)CC3)cc2)n1	10 (≈ 5.61 µg/mL)	0.03	IC50 [4]: 0.104 µM; IC50 at 48 h ([5]; CHO cells): 3.33 µM; selectivity ratio [6]: 111
C[C@H]1COC(c2ccc(CCN3CCC(Nc4nc5ccccc5n4Cc4ccc(C#N)cc4)CC3)cc2)=N1	20 (≈ 10.4 µg/mL)	0.074	IC50 [4]: 0.263 µM; IC50 at 48 h ([5]; CHO cells): 38.9 µM; selectivity ratio [6]: 525
Cc1noc(-c2ccc(CCN3CCC(Nc4nc5ccccc5n4CC4CCCCC4)CC3)cc2)n1	80 (≈ 39.9 µg/mL)	0.093	IC50 [4]: 0.156 µM; IC50 at 48 h ([5]; CHO cells): 44.4 µM; IC50 [3]: 0.89 µM; selectivity ratio [6]: 477
CN(C)Cc1noc(-c2ccc(CCN3CCC(Nc4nc5ccccc5n4C)CC3)cc2)n1	120 (≈ 55.2 µg/mL)	0.831	
N#Cc1ccc(Cn2c(NC3CCN(CCc4ccc(-c5noc(C(F)(F)F)n5)cc4)CC3)nc3ccccc32)cc1	20 (≈ 11.4 µg/mL)	0.021	IC50 [4]: 0.049 µM; IC50 at 48 h ([5]; CHO cells): 3.85 µM; selectivity ratio [6]: 175; inhibition [7]: Active
Cn1c(NC2CCN(CCc3ccc(C(=O)N4CCN5CCCC5C4)cc3)CC2)nc2ccccc21 (stereo not drawn)	60 (≈ 29.2 µg/mL)	1.28	
N#Cc1ccc(Cn2c(NC3CCN(CCc4ccc(-c5ncon5)cc4)CC3)nc3ccccc32)cc1	40 (≈ 20.1 µg/mL)	0.089	IC50 [4]: 0.399 µM; IC50 at 48 h ([5]; CHO cells): 16.6 µM; selectivity ratio [6]: 187

Structure (SMILES)	solubility kinetic at 2 h [1] [µM]	IC50 [2] [µM]	other results
Cn1c(NC2CCN(CCc3ccc(C(=O)NC4(CO)CC4)cc3)CC2)nc2ccccc21	60 (≈ 26.9 µg/mL)	1.73	IC50 [3]: > 30 µM
Cc1noc(-c2ccc(CCN3CCC(Nc4nc5cc(Cl)c(Cl)cc5n4C)CC3)cc2)n1	80 (≈ 38.8 µg/mL)	0.514	
Cc1noc(-c2ccc(CCN3CCC(Nc4nc5cc(C#N)ccc5n4C)CC3)cc2)n1	80 (≈ 35.3 µg/mL)	0.611	
Cc1nnc(-c2ccc(CCN3CCC(Nc4nc5ccccc5n4Cc4ccc(C#N)cc4)CC3)cc2)o1	20 (≈ 10.4 µg/mL)	0.519	
COC(=O)c1ccc2c(c1)nc(NC1CCN(CCc3ccc(-c4nc(C)no4)cc3)CC1)n2C	120 (≈ 56.9 µg/mL)	0.496	IC50 [3]: 0.49 µM
Cc1noc(-c2ccc(CCN3CCC(Nc4nc5cc(S(C)(=O)=O)ccc5n4C)CC3)cc2)n1	60 (≈ 29.7 µg/mL)	4.65	
Cn1c(NC2CCN(CCc3ccc(-c4nc(CO)no4)cc3)CC2)nc2ccccc21	100 (≈ 43.3 µg/mL)	0.567	
Cc1noc(-c2ccc(CCN3CCC(Nc4nc5cc(C(=O)O)ccc5n4C)CC3)cc2)n1	160 (≈ 73.7 µg/mL)	> 6	
Cc1noc(-c2ccc(CCN3CC4(CCN(c5nc6ccccc6n5Cc5ccc(C#N)cc5)C4)C3)cc2)n1	40 (≈ 21.2 µg/mL)	0.446	
Cc1noc(-c2ccc(CCN3CC[C@@H](Nc4nc5ccccc5n4Cc4ccc(C#N)cc4)C3)cc2)n1		0.448	
C=CCNC(=O)c1ccc(CCN2CCC(Nc3nc4ccccc4n3C)CC2)cc1	80 (≈ 33.4 µg/mL)	2.61	
COC(=O)c1ccc(CCN2CCC(Nc3nc4ccccc4n3C)CC2)cc1	120 (≈ 47.1 µg/mL)	1.45	
C[C@@H]1CN=C(c2ccc(CCN3CCC(Nc4nc5ccccc5n4Cc4ccc(C#N)cc4)CC3)cc2)O1	60 (≈ 31.1 µg/mL)	0.104	IC50 [4]: 0.352 µM
CSCc1noc(-c2ccc(CCN3CCC(Nc4nc5ccccc5n4C)CC3)cc2)n1	80 (≈ 37 µg/mL)	0.383	
Cc1noc(-c2ccc(CCN3CCC(Nc4nc5ccccc5n4Cc4ccc(C#N)cc4)CC3)cc2)n1		0.097	IC50 [4]: 0.178 µM; IC50 at 48 h ([5]; cho): 19.7 µM
Cn1c(NC2CCN(CCc3ccc(C(=O)NCCO)cc3)CC2)nc2ccccc21	120 (≈ 50.6 µg/mL)	4.17	
Cc1noc(-c2ccc(CCN3CCC(Nc4nc5ccccc5n4C(C)C)CC3)cc2)n1	20 (≈ 8.89 µg/mL)	0.702	
Cc1noc(-c2ccc(CCN3CCC(Nc4nc5cc(C(F)(F)F)ccc5n4C)CC3)cc2)n1	40 (≈ 19.4 µg/mL)	0.422	
Cc1noc(-c2ccc(CCN3CCC(Nc4nc5ccccc5n4CC4CCC(F)(F)CC4)CC3)cc2)n1	20 (≈ 10.7 µg/mL)	0.46	
Cn1c(NC2CCN(CCc3ccc(-c4nc(C5CC5)no4)cc3)CC2)nc2ccccc21	60 (≈ 26.6 µg/mL)	0.484	
CCN(CC)CCCC(C)Nc1ccnc2cc(Cl)ccc12 (stereo not drawn) [CHLOROQUINE]			IC50 [7]: 22 µM
Cc1noc(-c2ccc(CCN3CCC(Nc4nc5cc(F)c(F)cc5n4C)CC3)cc2)n1	80 (≈ 36.2 µg/mL)	1.16	
Cn1c(NC2CCN(CCc3ccc(C(=O)N4CCNCC4)cc3)CC2)nc2ccccc21	120 (≈ 53.6 µg/mL)	3.41	IC50 [3]: > 30 µM
